Consider 1 molecule from patent publication US6979675B2, “Treatment of cancer with 2-deoxyglucose” (Threshold Pharmaceuticals, Inc., priority 2003, dated 2005).

In data set [1] the test system is MV522 human tumor carcinomas. Nature of the data set: Tumor growth delay study in mouse MV522 xenograft model (TH-PT-001). The method, then:
Female nude mice (nu/nu) between 5 and 6 weeks of age and weighing approximately 20 g were obtained from Harlan, Inc. (Madison, Wis.). Animals were implanted subcutaneously by trocar with fragments of Mv522 human tumor carcinomas harvested from subcutaneously growing tumors in nude mice hosts. When the tumors were approximately 71 mg in size (11 days following inoculation), the animals were pair-matched into treatment and control groups. Each group contained 10 tumored mice. Each mouse was ear-tagged and followed individually throughout the experiment. Initial doses were given on Day 1 following pair-matching. […] Sterile water was administered orally bid×5 to end to serve as the negative control. Mice were weighed twice weekly, and tumor measurements were obtained using calipers twice weekly, starting on Day 1. These tumor measurements were converted to mg tumor weight by the standard formula (W^2×L)/2. Each mouse was sacrificed when its tumor weight reached 1000 mg. In this test, the average day of sacrifice was determined for all groups and the tumor growth delay (TGD) for each treatment group, compared to the control group, was calculated.
All of these studies are outlined in the following table.

The conditions of data set [2]: for deaths: bid×5. On the procedure:
The maximum tolerated dose determination for this study was conducted using female nude mice (nu/nu) between 5 and 6 weeks of age weighing approximately 20 g (Harlan, Inc., Madison, Wis.). Dosing began on Day 1. […] A 20 mL/kg dose volume was used to achieve doses of 2000, 4000, 6000, 8000, and 9000 mg/kg/dose. Individual mouse weights in grams were recorded twice weekly throughout the study. The average weight per group was calculated, and weight gain or loss was determined by comparing the current Day's average to the Day 1 average for that same group. The study was terminated on Day 21.

For data set [3] the following is noted: rat, in vivo.
The conditions of data set [4]: dog, in vivo.
For another data set, the system named is HT-29 colon carcinoma. Nature of the data set: MTS growth inhibition assay, single agent studies. Type of data set: cell-based. The conditions noted are these: Homo sapiens, HT-29, 72 h; 3 days in culture; 11 mM glucose medium. On the procedure: (§1) Human tumor cell lines MiaPaCa-2 pancreatic carcinoma (mutant ras, gemcitabine sensitive) and HT-29 colon carcinoma (polyposis type, mutant p53 and APC, chemosensitive) were purchased from the ATCC (Rockville, Md.). […] Cells grown to 70% confluency were trypsinized and resuspended into cell culture medium at a concentration of 10^5 cells/ml. On Day 0 of the experiment, a […] aliquot of tumor cells was plated into internal wells of a 96-well microtiter plate at an appropriate density (in the range of 2×10^3 to 10^4 cells/well). The cells were incubated for 24 hours to allow maximum adhesion prior to exposure with test agents. […] The starting concentration and the test range of 5-FU were determined empirically for each cell line. Treatment with 5-FU started on Day 1. There were 6 replicates for each dose determination. Both drugs were added once without the medium change. After 3 days in culture, the number of proliferating cells was measured by the MTS assay described below. The test was repeated twice to quantify growth inhibitory activity. […] IC50 values were generated from two separate experiments. […] The MTS reagent is a tetrazolium compound and an electron coupling reagent. The MTS tetrazolium compound is bioreduced by cells into a colored formazan product soluble in cell culture medium. The conversion is catalyzed by NADPH or NADH produced by dehydrogenase enzymes in metabolically active cells. The MTS assay is a colorimetic assay based upon the ability of viable cells to convert […] to formazan; the quantity of formazan product, as measured by the 490 nm absorbance, is directly proportional to the number of viable cells in culture. An automated procedure determines the IC50 value. Exponentially growing cells in […] of cell culture medium are plated on Day 0 in 96-well microtiter plates at a concentration of 10^4 cells/well. […] At the end of the designated time period, 100 microL of growth medium is removed. […] Absorbance is documented on a Dynex HD microplate reader at a wavelength of 490 nm. The data was calculated as percent growth inhibition, wherein 0% represents the mean value in wells to which only vehicle (cell culture medium) was added. The % Growth Inhibition was calculated as follows: % Growth Inhibition=(1−(ODtest/ODvehicle)×100, where ODtest is the optical density of the tested sample, and ODvehicle is the optical density of the vehicle in which each respective drug is dissolved. […] To determine the interaction, there must be a significant difference that exists between the combination absorbance values and both endpoint values. For example, if the values are statistically (p<0.05) above or below the absorbance values of either agent tested alone, then antagonism or synergy is described. […]
On the technique in general: Tetrazolium assays rely on reduction of a dye to a coloured formazan, in cell work by metabolically active cells.

Data set [5] deals with MiaPaCa-2 pancreatic carcinoma. The experiment in a line: MTS growth inhibition assay, single agent studies. Type of data set: cell-based. The settings on record: Homo sapiens, MIA PaCa-2, 72 h; 3 days in culture; 11 mM glucose medium. The method, then: as §1
Data set [6] has as its system human non-small cell lung cancer (NSCLC) tumor cell lines. Nature of the data set: Proliferation with simultaneous 2-DG and Taxol treatment. Type of data set: cell-based. The conditions noted are these: 1 mM 2-DG by itself.
The subject of another data set is MV522 xenograft. Nature of the data set: 2-DG/Paclitaxel dosing study in mouse MV522 xenograft model. Type of data set: in vivo. The settings on record: 2-DG alone, oral; 10 days of dosing more effective than 5.

pIC50: −log10 of the molar value. Read-outs that look alike come from different tables or passages of the source.

Take `O=CC[C@@H](O)[C@H](O)[C@H](O)CO` [2-DG, 2-deoxy-D-glucose]: the tumor growth rate result in data set [1] (2-DG single agent 0–2000 mg/kg/dose, twice a day) is given as “did not slow the tumor growth rate”. Further, the “mean day of sacrifice” value in data set [1] (2-DG single agent 750 mg/kg p.o. bid×5 to end) is 28.9+/−3.7; in data set [1] (2-DG single agent 1000 mg/kg p.o. (Days 1–14 dose 50 mg/kg) bid×5 to end) it was 27.2+/−2.7; in data set [1] (2-DG single agent 1500 mg/kg p.o. (Days 1–14 dose 150 mg/kg) bid×5 to end) it was 28.2+/−4.6; in data set [1] (2-DG single agent 2000 mg/kg p.o. (Days 1–14 dose 400 mg/kg) bid×5 to end) it was 29.4+/−3.1. In addition, the toxic deaths entry in data set [1] (2-DG single agent groups) was “no toxic deaths”. In data set [1] (mouse, in vivo), the weight loss entry is recorded as “little weight loss”. The deaths entry in data set [2] (6000 mg/kg/dose group) was “One mouse died”; in data set [2] (8000 and 9000 mg/kg/dose groups), “All 5 mice died”. The “maximum tolerated dose (MTD)” value in data set [2] (mouse, in vivo) came out at 4000 mg/kg/dose. In addition, the “visible signs of toxicity, multiple dose (5-day)” value in data set [3] and in data set [4] was “no visible signs of toxicity” in each case. Besides, the “toxicity, single oral dose” value is “non-toxic” in data set [3] (po) and “emesis at 1 hour but no other visible toxicity” in data set [4] (po, 1 h). The “tolerability, single oral doses” value in data set [4] (po) is on record as “well tolerated”. For the same molecule, the negative-log IC50 (pIC50) (as a rule, the negative decadic logarithm of the IC50, by convention in mol/L) with HT-29 colon carcinoma was 2.01; in data set [5] it was 2.58. Further, the effect on proliferation result in data set [6] was “no effect on proliferation by itself”. For the same molecule, in the data set on MV522 xenograft, the tumor growth result is on record as “small delay in tumor growth”.
